Laboratory results reported in ChEMBL document CHEMBL4402591, “Imidazo[1,2-a]pyridine Derivatives as Aldehyde Dehydrogenase Inhibitors: Novel Chemotypes to Target Glioblastoma Stem Cells” (J Med Chem, 2020).

Experiments:
[1] = biological target: T1, Retinaldehyde dehydrogenase 3 (Homo sapiens, UniProt P47895); experiment: Inhibition of recombinant human 6His-tagged ALDH1A3 expressed in Escherichia coli BL21(DE3) using acetaldehyde as substrate preincubated for 5 mins followed by substrate addition by spectrometric assay
T1 sequence (P47895 whole entry): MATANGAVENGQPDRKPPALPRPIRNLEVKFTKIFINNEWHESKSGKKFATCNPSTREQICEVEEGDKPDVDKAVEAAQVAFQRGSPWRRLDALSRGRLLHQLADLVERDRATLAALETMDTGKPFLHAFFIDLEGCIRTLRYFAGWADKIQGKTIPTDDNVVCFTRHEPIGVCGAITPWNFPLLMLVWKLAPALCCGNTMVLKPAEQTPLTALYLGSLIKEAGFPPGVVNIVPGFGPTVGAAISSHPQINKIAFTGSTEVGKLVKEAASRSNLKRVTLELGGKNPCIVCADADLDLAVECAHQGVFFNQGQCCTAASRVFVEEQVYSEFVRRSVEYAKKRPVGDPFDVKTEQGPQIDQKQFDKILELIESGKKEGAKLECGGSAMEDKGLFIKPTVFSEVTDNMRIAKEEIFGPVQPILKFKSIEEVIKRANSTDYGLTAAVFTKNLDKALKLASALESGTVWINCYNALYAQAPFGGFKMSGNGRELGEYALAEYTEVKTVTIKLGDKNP

[2] = Antiproliferative activity against human MES374 cells measured after 72 hrs by alamar blue assay; type: functional, cell-based
[3] = biological target: T2, Aldehyde dehydrogenase 1A1 (Homo sapiens, UniProt P00352); experiment: Inhibition of recombinant human 6His-tagged ALDH1A1 expressed in Escherichia coli BL21(DE3) using acetaldehyde as substrate preincubated for 5 mins followed by substrate addition by spectrometric assay
T2 sequence (P00352 whole entry): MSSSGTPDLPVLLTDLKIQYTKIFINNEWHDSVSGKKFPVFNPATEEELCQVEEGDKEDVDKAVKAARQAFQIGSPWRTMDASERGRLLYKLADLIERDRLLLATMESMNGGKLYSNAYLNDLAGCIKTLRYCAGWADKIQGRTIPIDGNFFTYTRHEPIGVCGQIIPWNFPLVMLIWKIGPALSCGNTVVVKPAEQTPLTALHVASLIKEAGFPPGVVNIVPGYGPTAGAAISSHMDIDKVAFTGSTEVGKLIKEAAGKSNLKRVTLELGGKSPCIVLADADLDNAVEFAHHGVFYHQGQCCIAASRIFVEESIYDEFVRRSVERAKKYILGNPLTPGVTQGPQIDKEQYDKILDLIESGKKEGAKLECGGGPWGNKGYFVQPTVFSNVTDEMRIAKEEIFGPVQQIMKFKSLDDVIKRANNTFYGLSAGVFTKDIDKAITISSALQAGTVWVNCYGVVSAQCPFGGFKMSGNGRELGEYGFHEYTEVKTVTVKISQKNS

[4] = Antiproliferative activity against human PN157 cells measured after 72 hrs by alamar blue assay; type: functional, cell-based
[5] = Antiproliferative activity against human MES267 cells measured after 72 hrs by alamar blue assay; type: functional, cell-based
[6] = biological target: T1, Retinaldehyde dehydrogenase 3; experiment: Competitive inhibition of recombinant human 6His-tagged ALDH1A3 expressed in Escherichia coli BL21(DE3) using varying level of acetaldehyde as substrate preincubated for 5 mins followed by substrate addition by Michaelis-Menten plot analysis
Retinal dehydrogenase 2 = biological target: T3, Retinal dehydrogenase 2 (Homo sapiens, UniProt O94788); experiment: Inhibition of recombinant human 6His-tagged ALDH1A2 expressed in Escherichia coli BL21(DE3) using acetaldehyde as substrate preincubated for 5 mins followed by substrate addition by spectrometric assay
T3 sequence (O94788 whole entry): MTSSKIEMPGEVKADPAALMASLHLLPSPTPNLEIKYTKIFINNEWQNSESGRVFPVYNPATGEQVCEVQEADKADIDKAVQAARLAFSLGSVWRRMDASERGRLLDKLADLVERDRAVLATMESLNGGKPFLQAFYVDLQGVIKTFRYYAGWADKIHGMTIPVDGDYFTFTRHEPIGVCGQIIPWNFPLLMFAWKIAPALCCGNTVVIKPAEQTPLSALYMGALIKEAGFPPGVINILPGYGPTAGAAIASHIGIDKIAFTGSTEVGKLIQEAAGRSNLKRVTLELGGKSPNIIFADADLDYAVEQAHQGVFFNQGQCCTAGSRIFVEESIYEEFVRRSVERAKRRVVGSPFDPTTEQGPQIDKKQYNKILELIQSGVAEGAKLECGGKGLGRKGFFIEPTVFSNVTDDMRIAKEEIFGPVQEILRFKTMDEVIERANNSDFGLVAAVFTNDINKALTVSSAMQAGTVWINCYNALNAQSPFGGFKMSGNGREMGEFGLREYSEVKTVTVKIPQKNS

Row | SMILES | IC50 [1] [µM] | IC50 [3] [µM] | Ki [6] [µM] | IC50 (Retinal dehydrogenase 2) [µM] | IC50 [2] [nM] | IC50 [4] [µM] | IC50 [5] [µM]
1 | COc1ccc(-c2ccc3nc(-c4ccc(OC)cc4)cn3c2)cc1 | 11.4 |  |  |  |  |  | 
2 | Cc1ccc(-c2cn3cc(-c4ccc(F)cc4)ccc3n2)cc1 | 92.9 |  |  |  |  |  | 
3 | c1ccc(-c2ccc3nc(-c4ccccc4)cn3c2)cc1 | 4.7 | 19.6 | 0.54 | 54.6 | 2.74 | 0.151 | 0.0469
4 | COc1cccc(-c2cn3cc(-c4ccc(Cl)cc4)ccc3n2)c1 | 6.4 |  |  |  | 13.5 | 0.0296 | 0.0712
5 | COc1cccc(-c2cn3cc(-c4ccc(F)cc4)ccc3n2)c1 | 21.2 |  |  |  |  | 1.51 | 0.35
6 | Clc1ccc(-c2ccc3nc(-c4ccc(Br)cc4)cn3c2)cc1 |  | 17.3 |  |  |  |  | 
7 | COc1ccc(-c2cn3cc(-c4ccc(OC)c(OC)c4)ccc3n2)cc1 | 8.3 |  |  |  |  |  | 
8 | COC(=O)c1ccc(-c2ccc3nc(-c4ccccc4)cn3c2)cc1 | 27.4 | 96.9 |  |  |  | 0.822 | 0.823
9 | COc1ccc(-c2cn3cc(-c4cc(OC)cc(OC)c4)ccc3n2)cc1 | 3.5 | 198 |  |  |  |  | 

More lines, main results first:

Row | IC50 [1] [µM] | IC50 [3] [µM] | Ki [6] [µM] | IC50 (Retinal dehydrogenase 2) [µM] | SMILES | IC50 [2] [nM] | IC50 [4] [µM] | IC50 [5] [µM]
10 | 5.2 |  |  |  | N#Cc1ccc(-c2ccc3nc(-c4ccccc4)cn3c2)cc1 |  |  | 
11 | 45.8 | 68.8 |  |  | Clc1ccc(-c2ccc3nc(-c4ccccc4)cn3c2)cc1 | 0.0196 | 0.0531 | 0.0215
12 | 5.3 |  |  |  | N#Cc1cccc(-c2ccc3nc(-c4ccccc4)cn3c2)c1 |  |  | 
13 | 11.3 |  |  |  | Cc1ccc(-c2cn3cc(-c4ccccc4)ccc3n2)cc1 |  |  | 
14 | 27.1 |  |  |  | CSc1ccc(-c2ccc3nc(-c4ccccc4)cn3c2)cc1 |  |  | 
15 | 17.8 |  |  |  | COc1ccc(-c2ccc3nc(-c4ccccc4)cn3c2)cc1 |  | 2.66 | 0.66
16 | 22.8 |  |  |  | Fc1ccc(-c2ccc3nc(-c4ccccc4)cn3c2)cc1 | 0.00258 | 0.0252 | 0.0634
